Results from ChEMBL document CHEMBL1153583, “Organocatalytic synthesis and sterol 14alpha-demethylase binding interactions of enantioriched 3-(1H-1,2,4-triazol-1-yl)butyl benzoates” (Bioorg Med Chem Lett, 2009).
pKd: −log10 of the molar value.

experiment: Binding affinity to Penicillium digitatum CYP51 expressed in Escherichia coli by UV-visible spectrophotometry

| SMILES | pKd |
| --- | --- |
| C[C@@H](CCOC(=O)c1ccc(Cl)cc1)n1cncn1 | 6.01 |
| C[C@@H](CCOC(=O)c1ccc(Cl)cc1Cl)n1cncn1 | 6.34 |
| Cc1ccc(C(=O)OCC[C@H](C)n2cncn2)cc1 | 4.98 |
| C[C@H](CCOC(=O)c1ccccc1Cl)n1cncn1 | 6.24 |
| C[C@@H](CCOC(=O)c1ccccc1)n1cncn1 | 5.85 |
| CC(C)(C)C(O)/C(=C/c1ccc(Cl)cc1Cl)n1cncn1 (centres undefined) [DINICONAZOLE] | 6.61 |
| CC(C)(C)C(=O)C(Oc1ccc(Cl)cc1)n1cncn1 (centres undefined) [TRIADIMEFON] | 6.03 |
| CC(CCOC(=O)c1ccccc1Cl)n1cncn1 (racemic) | 5.95 |
| CC(CCOC(=O)c1ccccc1)n1cncn1 (racemic) | 5.93 |
| CC(CCOC(=O)c1cccc(Cl)c1)n1cncn1 (racemic) | 6.13 |
| Cc1ccc(C(=O)OCCC(C)n2cncn2)cc1 (racemic) | 5.76 |
| CC(CCOC(=O)c1ccc(Cl)cc1Cl)n1cncn1 (racemic) | 6.01 |
| C[C@@H](CCOC(=O)c1ccccc1Cl)n1cncn1 | 6.25 |
| CC(CCOC(=O)c1ccc(Cl)cc1)n1cncn1 (racemic) | 5.86 |
| C[C@H](CCOC(=O)c1ccc(Cl)cc1)n1cncn1 | 6.17 |
| C[C@H](CCOC(=O)c1ccccc1)n1cncn1 | 5.79 |
| C[C@H](CCOC(=O)c1cccc(Cl)c1)n1cncn1 | 5.63 |
| Cc1ccc(C(=O)OCC[C@@H](C)n2cncn2)cc1 | 6.47 |
| C[C@@H](CCOC(=O)c1cccc(Cl)c1)n1cncn1 | 6.33 |
